Where “and” joins values, the source holds several entries; their conditions need not be identical. Equal entries are not always repeated.
What was measured:
Format in all cases: cell-based, human
iMSCs = assay: electroporation of GFP repair template at AAVS1 with or without TTAGGG motif; settings: gene-editing at AAVS1 with GFP repair template
Procedure: FIG. 54 is a graphical illustration of the mechanism of action that the inclusion of the TTAGGG motif has on cells during electroporation. Cells were electroporated with and without the addition of a gene editing protein, UltraSlice. All electroporation's were performed using the Invitrogen NEON.
In this example, the TTAGGG motif was incorporated onto the 5′ end of a double stranded repair template or co-electroporated as a short oligo fragment in primary fibroblasts, iMSC, or iPSC.
The sequence of the TTAGGG motif used in this example was: […] (SEQ ID NO: 15). This motif was incorporated at the 5′ and 3′ end of dsODN via PCR amplification using the primer pair A151-AAVS1, Forward primer: […] (SEQ ID NO: 86) and A151-AAVS1, Reverse primer: […] (SEQ ID NO: 87). Control primers without the motif had the following sequences: AAVS1, Forward primer: […] (SEQ ID NO: 88) and AAVS1, Reverse primer: […] (SEQ ID NO: 89). The full sequence of the repair template that human primary fibroblasts, iMSCs and iPSCs was: AAVS1-h90-pJeT-GFP-SpA-h90. This repair template included a dsODN encoding a GFP reporter and containing an SfoI restriction site targeting the AAVS1 site with 90 base pairs of homology. The A151 sequence was added to the end of a double stranded repair template using PCR amplification. Repair templates were then purified using the Qiagen QIAquick PCR Purification kit prior to electroporation. […]

fibroblasts = assay: cell cycle S/G2 population after Resveratrol treatment
AAVS1 [1] = assay: 1 kb insertion in iPSCs (AAVS1 sPCR amplicon gel); settings: iPSC
Procedure: (§1) • 1. Fibroblasts were cultured using DMEM+10% FBS media in 37° Celsius with 5% O2 and 5% CO2 • 2. iPSC was cultured using mTeSR+Y27632 in 37° Celsius with 5% O2 and 5% CO2
(§2) • 3. After detaching cells with TrypleE and DTI, standard electroporation protocol was performed • 4. 0.8 ug˜1 ug of AAVS1 Ultraslice RNA and 600 ng of SfoI ssDNA repair template was delivered by electroporation. Ultraslice is a temperature sensitive gene-editing protein. The SfoI base change ssDNA repair template was a single stranded DNA piece with homology arms that is used as template for targeted DNA repair • 5. Fibroblasts were electroporated with 700 V, 20 ms, 1 pulse • 6. iPSCs were electroporated with 1100 V, 20 ms, 2 pulse)
In this experiment, the gel image is AAVS1 sPCR amplicon and not Sfol assay product. In the gel, Lane 1: 1000 base ladder; Lane 2: Ultraslice (Clean cap) and SfoI 1 kb insertion ssDNA repair template with 90b homology arm (Reverse transcription); and Lane 3: Ultraslice (Clean cap) and SfoI 1 kb insertion ssDNA repair template with 90b homology arm (Reverse transcription)—Resveratrol 25 uM 24 h incubation.
In this experiment, the gel image is AAVS1 sPCR amplicon and not Sfol assay product. […]

AAVS1 safe-harbor locus = assay: SfoI assay (RFLP) of single-base editing in fibroblasts; settings: for increase in single-base editing / base change efficiency compared to untreated: application after transfection (25 μM 48 h post electroporation)
Procedure: The following general protocol was used for an Sfol assay to quantify insertion of repair template.
as §1, §2
• 7. Cells were detached 48 h˜72 h post electroporation and centrifuged to obtain cell pellets • 8. Perform genomic DNA extraction was performed using ZYMO Research Quick DNA Miniprep Kit (Catalog #: D3024)
• 9. AAVS1 surveyor PCR was performed using KAPA Hifi Hotstart PCR kit
• 10. 250 ng˜400 ng of AAVS1 PCR amplicon was obtained • 11. Amplicon was mixed with 2 μl of 10× Tango Buffer and 1 μl of EheI enzyme • 12. The mixture was incubated for 1 h in 37° C., followed by 20 mins at 65° C.
• 13. After diluting SfoI assay product with 40 ul of H2O, 20 ul of product was loaded to 2% Egel • 14. After running 2% Egel for 10 minutes, the gel was visualized and SfoI band intensity was quantified using Chemidoc and ImageJ software
Following treatment with resveratrol, fibroblasts was co-transfected with mRNA encoding a chromatin context-sensitive gene-editing protein targeting the AAVS1 safe-harbor locus and a single-stranded DNA repair template designed to introduce a SfoI restriction-enzyme site through a G-to-C mutation. Single-base editing efficiency was determined by restriction fragment length polymorphism (RFLP) analysis. […] In the gel, Lane 1: 100 base ladder; Lane 2: Ultraslice and SfoI base change ssDNA repair template (Resveratrol 25 μM 48 h pretreatment); Lane 3: Ultraslice and SfoI base change ssDNA repair template (Untreated); and Lane 4: Ultraslice and SfoI base change ssDNA repair template (Resveratrol 25 μM treatment 48 post electroporation).

AAVS1 [2] = assay: 300 base insertion in fibroblasts (SfoI cut band)
Procedure: In the gel, Lane 1: 100 base ladder; Lane 2: Ultraslice and SfoI 300 base insertion dsDNA repair template (Untreated); and Lane 3: Ultraslice and SfoI 300 base insertion dsDNA repair template (NU7441 9 uM 72 h treated).

TTAGGGTTAGGGTTAGGGTTAGGG [A151 ODN]
higher viability than when the motif was not present (iMSCs): approximately 50% | more GFP-positive cells than when the motif was not present (iMSCs): approximately 50%

Oc1ccc(C=Cc2cc(O)cc(O)c2)cc1 [Resveratrol]
increase in S/G2 population (fibroblasts; 25 uM for 48 h followed by 8 h incubation in DMEM/10% FBS): approximately 40% | increase of the S and G2-phase population (fibroblasts; treatment prior to transfection, compared to untreated cells): 2.3 fold | 1 kb insertion rate (AAVS1 [1]; 25 uM for 24 h post electroporation, ssDNA repair template (Reverse transcription)): 8.7% | increase of 1 kb insertion (AAVS1 [1]; treatment after electroporation): 1.6 fold | increase in single-base editing / base change efficiency compared to untreated (AAVS1 safe-harbor locus): approximately 2.3 fold | increase in single-base editing / base change efficiency compared to untreated (AAVS1 safe-harbor locus; listed as resveratrol): > 2 fold | increase in HDR / base change efficiency compared to untreated (AAVS1 safe-harbor locus; fibroblasts, 25 μM 48 h pretreatment prior to transfection): 2.2 fold and 2 fold | gene-editing efficiency (gel) (AAVS1 safe-harbor locus; pretreated fibroblasts): increased gene-editing efficiency

O=c1cc(N2CCOCC2)oc2c(-c3cccc4c3sc3ccccc34)cccc12 [NU7441]
gene-editing efficiency (gel) (AAVS1 [2]): increased gene-editing efficiency | increase in 300b insertion SfoI cut band intensity compared to untreated (AAVS1 [2]; fibroblasts, 9 uM 72 h incubation): 7 fold
